# Source: patent US10150760B2, “Compounds for use in preparing heterocyclic triazole agonists of the APJ receptor” (AMGEN INC., priority 2016, dated 2018)
# Molecular target: human APJ receptor (Homo sapiens (Human), UniProt P35414)
# Experiment: [35S]GTPγS binding assay on membranes from CHO cells stably expressing human APJ receptor
# Format: biochemical
# Conditions: read-out: Activity hAPJ SPA EC50 IP
# In short: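 Membranes from CHO cells stably expressing human APJ incubated with ligand, 0.2 nM [35S]GTPγS and WGA SPA beads in HEPES pH 7.5 with 5 mM MgCl2, 200 mM NaCl, 3 μM GDP, 90 min at RT. Nonspecific binding defined with 100 μM GTPγS; EC50 by non-linear regression.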
# human APJ receptor, sequence (P35414 whole entry): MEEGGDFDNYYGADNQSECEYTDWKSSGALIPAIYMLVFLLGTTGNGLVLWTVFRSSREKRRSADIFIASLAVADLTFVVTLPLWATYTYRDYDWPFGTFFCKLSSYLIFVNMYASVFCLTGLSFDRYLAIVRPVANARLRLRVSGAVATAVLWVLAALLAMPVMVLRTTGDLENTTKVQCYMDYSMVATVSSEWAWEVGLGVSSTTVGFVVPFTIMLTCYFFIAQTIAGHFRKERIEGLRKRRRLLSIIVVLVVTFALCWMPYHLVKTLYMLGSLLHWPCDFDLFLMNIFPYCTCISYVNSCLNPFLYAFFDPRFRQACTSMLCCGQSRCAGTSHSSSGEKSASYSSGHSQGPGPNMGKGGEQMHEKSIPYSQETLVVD
row,SMILES,EC50 [µM]
1,"COCC1(n2c(NS(=O)(=O)[C@@H](C)[C@H](OC)c3ncc(Cl)cn3)nnc2[C@H]2CCC(C)(C)O2)CC1 (single isomer, unassigned) [Example 289.0, (1R,2S)-1-(5-chloropyrimidin-2-yl)-N-(5-((R)-5,5-dimethyltetrahydrofuran-2-yl)-4-(1-(methoxymethypcyclopropyl)-4H-1,2,4-triazol-3-yl)-1-methoxypropane-2-sulfonamide or (1R,2S)-1-(5-chloropyrimidin-2-yl)-N-(5-((S)-5,5-dimethyltetrahydrofuran-2-yl)-4-(1-(methoxymethypcyclopropyl)-4H-1,2,4-triazol-3-yl)-1-methoxypropane-2-sulfonamide]",1.1
2,"COCC1(n2c(NS(=O)(=O)[C@@H](C)[C@H](OC)c3ncc(Cl)cn3)nnc2[C@H]2CCC(C)(C)O2)CC1 (single isomer, unassigned) [Example 290.0, (1R,2S)-1-(5-chloropyrimidin-2-yl)-N-(5-((R)-5,5-dimethyltetrahydrofuran-2-yl)-4-(1-(methoxymethypcyclopropyl)-4H-1,2,4-triazol-3-yl)-1-methoxypropane-2-sulfonamide or (1R,2S)-1-(5-chloropyrimidin-2-yl)-N-(5-((S)-5,5-dimethyltetrahydrofuran-2-yl)-4-(1-(methoxymethyl)cyclopropyl)-4H-1,2,4-triazol-3-yl)-1-methoxypropane-2-sulfonamide]",0.023
3,"COc1ncnc(OC)c1-n1c(NS(=O)(=O)[C@@H](C)[C@@H](OC(C)C)c2ncc(Cl)cn2)nnc1[C@H]1CCOC1 (single isomer, unassigned) [Example 291.0, (1S,2S)-1-(5-chloropyrimidin-2-yl)-N-(4-(4,6-dimethoxypyrimidin-5-yl)-5-((R)-tetrahydrofuran-3-yl)-4H-1,2,4-triazol-3-yl)-1-isopropoxypropane-2-sulfonamide or (1S,2S)-1-(5-chloropyrimidin-2-yl)-N-(4-(4,6-dimethoxypyrimidin-5-yl)-5-((S)-tetrahydrofuran-3-yl)-4H-1,2,4-triazol-3-yl)-1-isopropoxypropane-2-sulfonamide]",0.0052
4,"COc1ncnc(OC)c1-n1c(NS(=O)(=O)[C@@H](C)[C@@H](OC(C)C)c2ncc(Cl)cn2)nnc1[C@H]1CCOC1 (single isomer, unassigned) [Example 292.0, (1S,2S)-1-(5-chloropyrimidin-2-yl)-N-(4-(4,6-dimethoxypyrimidin-5-yl)-5-((R)-tetrahydrofuran-3-yl)-4H-1,2,4-triazol-3-yl)-1-isopropoxypropane-2-sulfonamide or (1S,2S)-1-(5-chloropyrimidin-2-yl)-N-(4-(4,6-dimethoxypyrimidin-5-yl)-5-((S)-tetrahydrofuran-3-yl)-4H-1,2,4-triazol-3-yl)-1-isopropoxypropane-2-sulfonamide]",0.018
5,"COc1cccc(OC)c1-n1c(NS(=O)(=O)[C@@H](C)[C@H](OC)c2ncc(Cl)cn2)nnc1[C@H]1CC(=O)N(C)C1 (single isomer, unassigned) [Example 293.0, (1R,2S)-1-(5-chloropyrimidin-2-yl)-N-(4-(2,6-dimethoxyphenyl)-5-((R)-1-methyl-5-oxopyrrolidin-3-yl)-4H-1,2,4-triazol-3-yl)-1-methoxypropane-2-sulfonamide or (1R,2S)-1-(5-chloropyrimidin-2-yl)-N-(4-(2,6-dimethoxyphenyl)-5-((S)-1-methyl-5-oxopyrrolidin-3-yl)-4H-1,2,4-triazol-3-yl)-1-methoxypropane-2-sulfonamide]",0.1
6,"COc1cccc(OC)c1-n1c(NS(=O)(=O)[C@@H](C)[C@H](OC)c2ncc(Cl)cn2)nnc1[C@@H]1CC(=O)N(C)C1 (single isomer, unassigned) [Example 294.0, (1R,2S)-1-(5-chloropyrimidin-2-yl)-N-(4-(2,6-dimethoxyphenyl)-5-((R)-1-methyl-5-oxopyrrolidin-3-yl)-4H-1,2,4-triazol-3-yl)-1-methoxypropane-2-sulfonamide or (1R,2S)-1-(5-chloropyrimidin-2-yl)-N-(4-(2,6-dimethoxyphenyl)-5-((S)-1-methyl-5-oxopyrrolidin-3-yl)-4H-1,2,4-triazol-3-yl)-1-methoxypropane-2-sulfonamide]",0.27
7,"CO[C@H](c1ncc(Cl)cn1)[C@H](C)S(=O)(=O)Nc1nnc([C@H]2CCOC2)n1C(C)C (single isomer, unassigned) [Example 297.0, (1R,2S)-1-(5-chloropyrimidin-2-yl)-N-(4-isopropyl-5-((R)-tetrahydrofuran-3-yl)-4H-1,2,4-triazol-3-yl)-1-methoxypropane-2-sulfonamide or (1R,2S)-1-(5-chloropyrimidin-2-yl)-N-(4-isopropyl-5-((S)-tetrahydrofuran-3-yl)-4H-1,2,4-triazol-3-yl)-1-methoxypropane-2-sulfonamide]",1.47
8,"CO[C@H](c1ncc(Cl)cn1)[C@H](C)S(=O)(=O)Nc1nnc([C@H]2CCOC2)n1C(C)C (single isomer, unassigned) [Example 298.0, (1R,2S)-1-(5-chloropyrimidin-2-yl)-N-(4-isopropyl-5-((R)-tetrahydrofuran-3-yl)-4H-1,2,4-triazol-3-yl)-1-methoxypropane-2-sulfonamide or (1R,2S)-1-(5-chloropyrimidin-2-yl)-N-(4-isopropyl-5-((S)-tetrahydrofuran-3-yl)-4H-1,2,4-triazol-3-yl)-1-methoxypropane-2-sulfonamide]",1.89
9,"CO[C@H](c1ncc(Cl)cn1)[C@H](C)S(=O)(=O)Nc1nnc([C@H]2CCC(C)(C)O2)n1C(C)C (single isomer, unassigned) [Example 299.0, (1R,2S)-1-(5-chloropyrimidin-2-yl)-N-(5-((R)-5,5-dimethyltetrahydrofuran-2-yl)-4-isopropyl-4H-1,2,4-triazol-3-yl)-1-methoxypropane-2-sulfonamide or (1R,2S)-1-(5-chloropyrimidin-2-yl)-N-(5-((S)-5,5-dimethyltetrahydrofuran-2-yl)-4-isopropyl-4H-1,2,4-triazol-3-yl)-1-methoxypropane-2-sulfonamide]",0.94
10,"CO[C@H](c1ncc(Cl)cn1)[C@H](C)S(=O)(=O)Nc1nnc([C@H]2CCC(C)(C)O2)n1C(C)C (single isomer, unassigned) [Example 300.0, (1R,2S)-1-(5-chloropyrimidin-2-yl)-N-(5-((R)-5,5-dimethyltetrahydrofuran-2-yl)-4-isopropyl-4H-1,2,4-triazol-3-yl)-1-methoxypropane-2-sulfonamide or (1R,2S)-1-(5-chloropyrimidin-2-yl)-N-(5-((S)-5,5-dimethyltetrahydrofuran-2-yl)-4-isopropyl-4H-1,2,4-triazol-3-yl)-1-methoxypropane-2-sulfonamide]",1.4
11,"CO[C@H](c1ncc(Cl)cn1)[C@H](C)S(=O)(=O)Nc1nnc([C@H]2COCCO2)n1C(C)C (single isomer, unassigned) [Example 301.0, (1R,2S)-N-(5-((S)-1,4-dioxan-2-yl)-4-isopropyl-4H-1,2,4-triazol-3-yl)-1-(5-chloropyrimidin-2-yl)-1-methoxypropane-2-sulfonamide or (1R,2S)-N-(5-((R)-1,4-dioxan-2-yl)-4-isopropyl-4H-1,2,4-triazol-3-yl)-1-(5-chloropyrimidin-2-yl)-1-methoxypropane-2-sulfonamide]",2.9
12,"CO[C@H](c1ncc(Cl)cn1)[C@H](C)S(=O)(=O)Nc1nnc([C@H]2COCCO2)n1C(C)C (single isomer, unassigned) [Example 302.0, (1R,2S)-N-(5-((S)-1,4-dioxan-2-yl)-4-isopropyl-4H-1,2,4-triazol-3-yl)-1-(5-chloropyrimidin-2-yl)-1-methoxypropane-2-sulfonamide or (1R,2S)-N-(5-((R)-1,4-dioxan-2-yl)-4-isopropyl-4H-1,2,4-triazol-3-yl)-1-(5-chloropyrimidin-2-yl)-1-methoxypropane-2-sulfonamide]",0.71
13,"COCCn1c(NS(=O)(=O)[C@@H](C)[C@H](OC)c2ncc(Cl)cn2)nnc1[C@H]1CCOC1 (single isomer, unassigned) [Example 309.0, (1R,2S)-1-(5-chloropyrimidin-2-yl)-1-methoxy-N-(4-(2-methoxyethyl)-5-((R)-tetrahydrofuran-3-yl)-4H-1,2,4-triazol-3-yl)propane-2-sulfonamide or (1R,2S)-1-(5-chloropyrimidin-2-yl)-1-methoxy-N-(4-(2-methoxyethyl)-5-((S)-tetrahydrofuran-3-yl)-4H-1,2,4-triazol-3-yl)propane-2-sulfonamide]",2.6
14,"COCCn1c(NS(=O)(=O)[C@@H](C)[C@H](OC)c2ncc(Cl)cn2)nnc1[C@H]1CCOC1 (single isomer, unassigned) [Example 310.0, (1R,2S)-1-(5-chloropyrimidin-2-yl)-1-methoxy-N-(4-(2-methoxyethyl)-5-((R)-tetrahydrofuran-3-yl)-4H-1,2,4-triazol-3-yl)propane-2-sulfonamide or (1R,2S)-1-(5-chloropyrimidin-2-yl)-1-methoxy-N-(4-(2-methoxyethyl)-5-((S)-tetrahydrofuran-3-yl)-4H-1,2,4-triazol-3-yl)propane-2-sulfonamide]",0.54
15,"COCCn1c(NS(=O)(=O)[C@@H](C)[C@H](OC)c2ncc(Cl)cn2)nnc1[C@@H]1COCCO1 (single isomer, unassigned) [Example 311.0, (1R,2S)-N-(5-((R)-1,4-dioxan-2-yl)-4-(2-methoxyethyl)-4H-1,2,4-triazol-3-yl)-1-(5-chloropyrimidin-2-yl)-1-methoxypropane-2-sulfonamide or (1R,2S)-N-(5-((S)-1,4-dioxan-2-yl)-4-(2-methoxyethyl)-4H-1,2,4-triazol-3-yl)-1-(5-chloropyrimidin-2-yl)-1-methoxypropane-2-sulfonamide]",1.7
